Laboratory results as given in patent publication US7157570B2, “Human ribonucleotide reductase M2 subunit” (priority 2002, dated 2007).

Columns and labels:
[1] = tested on: KB cells; experiment: colony-forming assay; format: cell-based, human; conditions: drug alone (0.1 mM HU or 0.3 μM Gem)
Experimental: Human oropharyngeal carcinoma KB cells (American Type Culture Collection) were cultured on plastic tissue culture plates in RPMI 1640 supplemented with 10% fetal bovine serum at 37° C. in a humidified atmosphere containing 5% carbon dioxide. […] In all studies, HU was included in the growth medium where indicated at a concentration of 0.1 mM while Gem was provided at a concentration of 0.3 μM.
The colony-forming ability of KB cells treated with HU and/or Gem at varying times was determined. Equal numbers of logarithmically growing cells were treated with HU and/or Gem at the times specified and then plated in 6-well tissue culture dishes as previously described (Zhou et al. (1998) Biochem Pharmaco 55, 1657–1665). The numbers of colonies, consisting of at least 50 cells, for each sample were counted after incubation at 37° C. for 8 generation times.
The colony-forming ability of KB cells treated with HU and/or Gem was assayed using the ID50 concentrations for KB cells. KB cells were exposed to 0.1 mM HU. 0.3 μM Gem was added after 2 to 24 hours of HU treatment, and then cells were assayed for their colony forming ability.

[2] = phase I trial: dose-limiting toxicities and MTD; format: in vivo, human; conditions: on days 2 and 9; HU 500 mg every 6 h x4 on days 1 and 8
Experimental: Pregnant female patients were excluded.
Patients received the chemotherapy as outpatients.
Hematologic dose-limiting toxicity (DLT) was defined as a platelet count <75,000/μl on day 8, or a platelet count <25,000/μl lasting seven or more days, an ANC <1,000/μl on day 8 or an ANC <500/μl lasting seven or more days. Hepatic DLT was defined as bilirubin 4.5–6.0 mg/dl or transaminase 8.0–20.0 times normal (grade 3), and bilirubin >6.0 mg/dl or transaminase more than 20.0 times normal (grade 4). Other toxicities were graded according to the NCl Common Toxicity Criteria Version 1.0. Dose escalations and determination of the maximum tolerated dose (MTD) were based on DLT occurring in the first cycle. MTD was defined as the highest dose tested at which none or only one patient experienced DLT when at least six patients were treated at that dose and were evaluable for toxicity. Patients received additional cycles of therapy until unacceptable toxicity required discontinuation of treatment, the patient requested discontinuation, or disease progression occurred.

[3] = clinical; set-up: species or system human; conditions: in vivo
Experimental: Blood sample were collected in heparinized tubes and kept on ice until plasma could be separated by centrifugation (within 30 min). Plasma was transferred to polypropylene tubes containing tetrahydrouridine to inhibit cytidine deaminase and stored at -70° C. until analysis. […] Detection was performed by UV absorbance at 275 nm. […] The inter- and intra-day coefficient of variation across the entire range of the standard curve were <10%, and the accuracies were ±7%. The lower limit of quantification of the assay was 5 ng/ml. […] Data were fitted to a two-compartment model with first-order elimination.

[4] = tested on: KBGem clone; conditions: cited from earlier work

Nc1ccn([C@@H]2O[C@H](CO)[C@@H](O)C2(F)F)c(=O)n1 [Gemcitabine, gemcitabine]
colony formation, % of untreated controls [1]: approximately 50% | MTD for gemcitabine in this combination of drugs [2]: 750 mg/m^2 | t1/2 alpha ([3]; human): 2.4 ± 1.4 min | variation of CLsys within a single dose level ([3]; human): about 6 fold | half-life ([3]; human, t1/2 alpha): 2.6 ± 1.9 min | half-life ([3]; human, t 1/2 alpha, Mean): 2.7 min | half-life ([3]; human, t1/2 beta): 15.2 ± 5.3 min | differences in pharmacokinetic parameters between day 2 and day 9 [3]: no significant differences | effect of administered dose on CLsys [3]: no apparent effect | increase in resistance (to Gem) [4]: 10 fold
